From the supplement of paper PMC10307832

What was measured:
Experiment in all cases: relative viability (nuclei count vs DMSO), 5 days (fraction); higher = more cells survive
[1] = tested on: LXF-289; settings: first compound 0.2 µM
Summary of the method: (§1)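 Lung cancer cell lines were seeded in 1536-well plates and dosed by pin tool the next day, with either a single drug or a fixed anchor-drug dose combined with five library-drug doses (not always all listed) spaced in √10 steps. Five days later, one step fixed the cells and stained their nuclei (final 0.05% Triton X-100, 1% formaldehyde, 1 ug/ml Hoechst), and nuclei were counted on 4× images. Relative viability is the nuclei count in treated wells divided by the count in vehicle wells, and each value is the median of duplicate plates.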

[2] = tested on: NCI-H1792
Summary of the method: as §1

[3] = tested on: NCI-H520
Summary of the method: as §1

[4] = tested on: H3255
Summary of the method: as §1

[5] = tested on: HCC-827
Summary of the method: as §1

[6] = tested on: SW 900
Summary of the method: as §1

[7] = tested on: A-427
Summary of the method: as §1

[8] = tested on: NCI-H2087
Summary of the method: as §1

[9] = tested on: NCI-H1975
Summary of the method: as §1

[10] = tested on: NCI-H1915
Summary of the method: as §1

[11] = tested on: SW 1573
Summary of the method: as §1

[12] = tested on: NCI-H1793
Summary of the method: as §1

## CCNC(=O)c1noc(-c2cc(C(C)C)c(O)cc2O)c1-c1ccc(CN2CCOCC2)cc1 [Luminespib] + Cc1nc(Nc2ncc(C(=O)Nc3c(C)cccc3Cl)s2)cc(N2CCN(CCO)CC2)n1 [Dasatinib] (partner 0.075 µM)
[1]
  relative viability: 0.0395
[2]; first compound 0.002 µM
  relative viability: 0.737
[2]; first compound 0.006325 µM
  relative viability: 0.619
[2]; first compound 0.02 µM
  relative viability: 0.722
[2]; first compound 0.06325 µM
  relative viability: 0.361
[2]; first compound 0.2 µM
  relative viability: 0.242
[3]; first compound 0.002 µM
  relative viability: 0.17
[3]; first compound 0.006325 µM
  relative viability: 0.209
[3]; first compound 0.02 µM
  relative viability: 0.198
[3]; first compound 0.06325 µM
  relative viability: 0.151
[3]; first compound 0.2 µM
  relative viability: 0.173
[4]; first compound 0.002 µM
  relative viability: 0.375
[4]; first compound 0.006325 µM
  relative viability: 0.311
[4]; first compound 0.06325 µM
  relative viability: 0.406
[4]; first compound 0.2 µM
  relative viability: 0.197
[5]; first compound 0.002 µM
  relative viability: 0.217
[5]; first compound 0.006325 µM
  relative viability: 0.262
[5]; first compound 0.02 µM
  relative viability: 0.219
[5]; first compound 0.06325 µM
  relative viability: 0.259
[5]; first compound 0.2 µM
  relative viability: 0.117
[6]; first compound 0.002 µM
  relative viability: 0.741
[6]; first compound 0.006325 µM
  relative viability: 0.722
[6]; first compound 0.02 µM
  relative viability: 0.227
[6]; first compound 0.06325 µM
  relative viability: 0.0874
[6]; first compound 0.2 µM
  relative viability: 0.109
[7]; first compound 0.002 µM
  relative viability: 0.779
[7]; first compound 0.006325 µM
  relative viability: 0.671
[7]; first compound 0.02 µM
  relative viability: 0.483
[7]; first compound 0.06325 µM
  relative viability: 0.33
[7]; first compound 0.2 µM
  relative viability: 0.128
[8]; first compound 0.002 µM
  relative viability: 0.757
[8]; first compound 0.006325 µM
  relative viability: 0.441
[8]; first compound 0.02 µM
  relative viability: 0.317
[8]; first compound 0.06325 µM
  relative viability: 0.102
[8]; first compound 0.2 µM
  relative viability: 0.086
[9]; first compound 0.002 µM
  relative viability: 0.382
[9]; first compound 0.006325 µM
  relative viability: 0.347
[9]; first compound 0.02 µM
  relative viability: 0.14
[9]; first compound 0.06325 µM
  relative viability: 0.093
[9]; first compound 0.2 µM
  relative viability: 0.0892
[10]; first compound 0.002 µM
  relative viability: 0.311
[10]; first compound 0.006325 µM
  relative viability: 0.299
[10]; first compound 0.02 µM
  relative viability: 0.234
[10]; first compound 0.06325 µM
  relative viability: 0.236
[10]; first compound 0.2 µM
  relative viability: 0.0739
[11]; first compound 0.002 µM
  relative viability: 0.506
[11]; first compound 0.006325 µM
  relative viability: 0.532
[11]; first compound 0.02 µM
  relative viability: 0.13
[11]; first compound 0.06325 µM
  relative viability: 0.0551
[11]; first compound 0.2 µM
  relative viability: 0.0703
[12]; first compound 0.002 µM
  relative viability: 0.39
[12]; first compound 0.006325 µM
  relative viability: 0.359
[12]; first compound 0.02 µM
  relative viability: 0.117
[12]; first compound 0.06325 µM
  relative viability: 0.116
[12]; first compound 0.2 µM
  relative viability: 0.14
